# Tests used:
# [1] = test system: dermal primary human fibroblasts (dPHFs); experiment: Western blot of fibronectin, collagen-1 and PAI-1 in dermal primary human fibroblasts; assay type: cell-based; settings: for extracellular levels of fibronectin, collagen-1, and PAI-1 (ECM proteins): Etomoxir 10 uM, BAY-876 40 nM, FIG. 2A; for effect on intracellular levels of fibronectin and collagen-1 / effect on downregulation of extracellular fibronectin and collagen-1 by caffeic acid: caffeic acid (40 uM) treated dPHFs; for effect on downregulation of extracellular fibronectin and collagen-1 by caffeic acid: in a dose dependent manner
# [2] = test system: radiation-induced skin fibrosis; experiment: Murine radiation-induced skin fibrosis model; assay type: in vivo, mice
# Description: All animal procedures were approved by Animal Care Committee at the University Health Network under AUP 3422. A murine skin fibrosis model was created by radiating the hindlimb of C3H/HeJ mice (Jackson Laboratory) or B6.12951-Cd36^tm1Mfe/J mice (Jackson Laboratory) using an XRAD 225Cx (Precision X-Ray) and a 2.5 cm collimator. Prior to irradiation, fluoroscopic imaging was used to confirm and standardize the irradiation site. 40 Gy for C3H mice or 30 Gy for B6 mice was divided equally on the dorsal and ventral side of the leg. Animals were randomized into groups for treatment by a researcher blinded to treatment assignment. For CD36^high cell treatment, 1×10^6 cells in 100 ul PBS were injected into the hindlimb subdermally at 3 sites weekly for 3 weeks starting at 4 weeks post-irradiation. For caffeic acid phenethyl ester treatment, 10 mg/kg was given by intraperitoneal injection by a researcher blinded to treatment. Caffeic acid phenethyl ester or vehicle control was given 3× per week for 10 weeks starting at 1 week post-irradiation. Leg contracture measurement was performed, as previously published^21, after first sedating mice with inhalation anesthesia and ensuring deep sedation through no pain reflex and no muscle tone. Then mice hips were fixed on a custom apparatus. 0.1N equivalent weight was then used to extend the fibrotic and contralateral normal leg and leg extension was measured using a standardized ruler by two assessors blinded to treatment groups. Percentage leg contracture was calculated as 1−leg extension of fibrotic leg/leg extension of contralateral normal leg. Leg contracture was measured biweekly and averaged for the week.
# Formalin-fixed, paraffin-embedded 8 um sections treated with Masson's Trichrome Stain were whole slide scanned using Aperio ScanScope XT. Analysis was performed by a researched blinded to treatment. Using ImageJ, whole slide scanned images were loaded using the […] plugin, and then stacked to RGB. Colour deconvolution was used to separate the full-colour images into their red, green and blue components. A threshold of pixel intensity was optimized and set and standardized for all images. A ratio of blue (trichrome) to red (nuclear) pixel density was derived for each image, representing collagen to cell ratio.
# [3] = test system: dermal primary human fibroblasts (dPHFs); experiment: FAO and glycolysis functional assessment (Seahorse) in dPHFs; assay type: cell-based; settings: TGF-B1 stimulated dPHFs
# Method: FAO and Glycolysis Functional Assessment for dPHFs • Seahorse experiments were performed on an XFe96 analyzer (Aligent) based on manufacturer's instructions. dPHFs were prepared as per above (cell culture) on an XF96 culture plate. For glycolysis profiling, final concentration of glucose (1 mM or 10 mM), oligomycin (1 uM), and 2-DG (100 mM) was utilized. For FAO, palmitate sodium (Sigma) and BSA-fatty acid free (Sigma) were used to make palmitate-BSA (0.17 mM) as per manufacturer's instructions. Etomoxir (Tocris) 40 uM final concentration was used.
# SMAD3 = SMAD3 luciferase reporter in dPHFs; assay type: cell-based, human; settings: for SMAD3 dependent transcription: in response to TGF-B1, caffeic acid 40 uM, WZB-117 10 uM, 2-DG 2 mM
# Method: SMAD3 luciferase reporter was constructed as previously described^26. Oligos containing SMAD3 binding sites were designed with BamH1 and Sal1 digestion sites. Forward: 5′-[…]-3′, reverse: 5′-[…]-3′. SMAD oligoes were inserted into a p-delta-51 LUC II reporter. dPHFs were electroporated with construct using an Amaxa mouse neural stem cell nucleofactor kit (Lonza). 24 hours after electroporation, cells were treated as above (cell culture) for 24 hours and lysed to assess for luciferase and renilla activity. Relative luciferase activity was defined as the level of luciferase bioluminescence divided by renilla bioluminescence for each sample.
# [4] = test system: dermal primary human fibroblasts (dPHFs); experiment: qRT-PCR gene expression profiling in dPHFs; assay type: cell-based; settings: caffeic acid 40 uM
# Method: dPHFs obtained from ATCC (PCS-201-012) were cultured in DMEM with 5% FBS. Mesenchymal cells were isolated primarily from C3H or B6 mice. Animals were euthanized and intraperitoneal fat or skin was dissected and minced. Collagenase and hyaluronidase (Stem cell technologies) digestion was performed in a rotating oven at 37 C for 1 hour, passed through a 70 uM filter, and then plated in DMEM+10% FSB to expand the mesenchymal population. Cells were starved for 12 hours in MEM media prior to treatment with TGF-B1 (Sigma), caffeic acid (Sigma), dichloroacetic acid (Sigma), PDGF-BB (R&D Systems), and/or etomoxir (Tocris). All protein and mRNA profiling was performed at 24 hours post-treatment except for PDGF-BB, which was performed at 48 hours post-treatment.
# For human and murine skin samples, skin samples were macrodissected and snap frozen in liquid nitrogen and stored at −80° C. For in vitro experiments, cells were trypsinized and either snap frozen in liquid nitrogen or immediately underwent RNA extraction. All RNA was extracted using the RNeasy Mini Kit (Qiagen) according to manufacturer instructions. RNA quality was measured and quantified using either the NanoDrop 2000c Spectrophotometer (Thermo Scientific); we used either A260/280 for cell samples, or RIN for human and murine samples using a 2100 bioanalyzer (Aligent). cDNA was synthesized from normalized amounts of RNA using random hexamer primers and SuperScript III (Invitrogen) on a PTC-200 Peltier Thermal Cycler. Primers were obtained from peer-reviewed publications whenever possible. See Table S1 for references and amplicon size. Primers were validated through BLASTing to ensure specificity, size confirmation by gel electrophoresis at first time use, and by melting curve assessment for all reactions. PCR efficiency was measured using a standard curve through the dilution of a representative sample to determine the linear range of cDNA amounts for qRT-PCR reactions. qRT-PCR reactions were performed on 384-well plates (Applied Biosystems) using SYBR Green PCR Master Mix (Applied Biosystems). The analysis was run on the 7900HT Fast Real-Time PCR System (Applied Biosystems). Reaction conditions for cDNA synthesis and qRT-PCR are found in supplementary data Table S2 and S3 respectively. A no template control was used to monitor contamination and false positive results from primer-dimers. Results of no template controls were confirmed to have higher CT-values and distinct melting curves compared to template reactions. 18S ribosomal RNA was used as an internal control. A 2^−ΔΔCT method was used for relative quantification and for graphical representation in figures. Statistical analysis was performed on biological replicates using Relative Expression Software Tool (REST)^24 set to default parameters.
# [5] = test system: dermal primary human fibroblasts (dPHFs); experiment: DQ-collagen-1 / lysotracker co-localization in dPHFs; assay type: cell-based; settings: TGF-B1 3 ng/ml; caffeic acid 40 uM
# CD36 = CD36 gene (qRT-PCR) and surface (flow cytometry) expression in dPHFs; assay type: cell-based, human
# Method: For human and murine skin samples, skin samples were macrodissected and snap frozen in liquid nitrogen and stored at −80° C. For in vitro experiments, cells were trypsinized and either snap frozen in liquid nitrogen or immediately underwent RNA extraction. All RNA was extracted using the RNeasy Mini Kit (Qiagen) according to manufacturer instructions. RNA quality was measured and quantified using either the NanoDrop 2000c Spectrophotometer (Thermo Scientific); we used either A260/280 for cell samples, or RIN for human and murine samples using a 2100 bioanalyzer (Aligent). cDNA was synthesized from normalized amounts of RNA using random hexamer primers and SuperScript III (Invitrogen) on a PTC-200 Peltier Thermal Cycler. Primers were obtained from peer-reviewed publications whenever possible. See Table S1 for references and amplicon size. […] PCR efficiency was measured using a standard curve through the dilution of a representative sample to determine the linear range of cDNA amounts for qRT-PCR reactions. qRT-PCR reactions were performed on 384-well plates (Applied Biosystems) using SYBR Green PCR Master Mix (Applied Biosystems). […] A 2^−ΔΔCT method was used for relative quantification and for graphical representation in figures. […]
# [6] = test system: dermal primary human fibroblasts (dPHFs); experiment: Lysosome quantification (LysoTracker) and TFEB expression in dPHFs; assay type: cell-based; settings: TGF-B1 3 ng/ml; caffeic acid 40 uM
# Method: dPHFs were treated as per above (cell culture) and exposed to LysoTracker (ThermoFisher) as per manufacturer's instructions on a 4 chamber cover glass system (ThermoFisher). Images were obtained using an Olympus Fluoview laser-scanning confocal microscope. Fluorescence intensity was quantitated per cell using the Object Identification module and Measurement function of Volocity software. Cell area was measured using ImageJ software.
# [7] = mice with skin fibrosis, CAPE IP 10 mg/Kg 3 times per week for 10 weeks
# [8] = TGF-B1 treated dPHFs, caffeic acid 40 uM
structure (smiles),measurement,setting,value
Cc1c(NC(=O)c2cc(C(N)=O)nc3cc(F)ccc23)c(C(F)(F)F)nn1Cc1ccc(C#N)cc1 [BAY-876],"extracellular levels of fibronectin, collagen-1, and PAI-1 (ECM proteins)","[1]; dPHFs, WZB-117 10 uM",downregulation
"O=C(/C=C/c1ccc(O)c(O)c1)OCCc1ccccc1 [CAPE, caffeic acid phenethyl ester]","fibronectin, collagen-1 and PAI-1","[1]; TGF-B1 (3 ng/ml) treated dPHFs, CAPE 5 uM",downregulate
same,"functional and histological evidence of fibrosis severity (leg contracture, trichrome)",[2]; CAPE IP 10 mg/Kg 3 times per week for 10 weeks,significantly reduced
same,PPAR signaling in skin,[2]; [7],upregulated
same,expression of CD36 in skin,[2]; [7],upregulated
same,"CD36 expression in vimentin+ (mesenchymal) cells, co-immunofluorescence","[2]; mice with skin fibrosis, CAPE treatment",increase
Cl.N [NH4Cl],effect on intracellular levels of fibronectin and collagen-1,[1],no effect
same,effect on downregulation of extracellular fibronectin and collagen-1 by caffeic acid,[1],inhibit
O=C(O)/C=C/c1ccc(O)c(O)c1 [caffeic acid],functional shift of metabolism (glycolysis vs FAO),[3],functionally shifted metabolism from glycolysis to FAO
same,SMAD3 dependent transcription,SMAD3,reduced
same,PPAR genes expression,[4]; TGF-B1 (3 ng/ml) treated dPHFs,upregulated
same,glycolysis genes expression,[4]; TGF-B1 (3 ng/ml) treated dPHFs,downregulated
same,FN1 and COL1A1 expression,[4]; TGF-B1 stimulated fibroblasts,moderately decreased
same,expression of PAI,[4]; TGF-B1 stimulated fibroblasts,significantly downregulated
same,co-localization between DQ-collagen-1 and lysosomes,[5],significant increase
same,extracellular fibronectin and collagen-1,[1]; [8],markedly downregulated
same,intracellular and extracellular PAI-1,[1]; [8],reduced
same,CD36 gene and surface expression,"CD36; TGF-B1 stimulated dPHFs, caffeic acid 40 uM",restored
same,expression of TFEB and lysosomes in dPHFs,[6],increasing
"O=CC[C@@H](O)[C@H](O)[C@H](O)CO [2-DG, 2-deoxy-d-glucose]",SMAD3 dependent transcription,SMAD3,inhibited
same,"extracellular levels of fibronectin, collagen-1, and PAI-1 (ECM proteins)","[1]; dPHFs, WZB-117 10 uM",downregulation
CCOC(=O)[C@@]1(CCCCCCOc2ccc(Cl)cc2)CO1 [etomoxir],rescue of WZB-117 and 2-DG inhibition of SMAD3 dependent transcription,SMAD3; TGF-B1 + WZB-117 or 2-DG + etomoxir 10 uM,not rescued
same,effect on caffeic acid's reduction of SMAD3 dependent transcription,SMAD3; TGF-B1 + caffeic acid 40 uM + etomoxir 10 uM,inhibited
same,effect on the downregulation of pro-fibrotic proteins by caffeic acid,"[1]; TGF-B1 + caffeic acid 40 uM + etomoxir, dPHFs",inhibited
same,"extracellular levels of fibronectin, collagen-1, and PAI-1 (ECM proteins)","[1]; dPHFs, WZB-117 10 uM",elevation
same,CD36 surface expression,"CD36; dPHFs, Etomoxir 10 uM for 24 hours",downregulated
CCN(CC)CCCC(C)Nc1ccnc2cc(Cl)ccc12 (stereo not shown) [chloroquine],effect on intracellular levels of fibronectin and collagen-1,[1],no effect
same,effect on downregulation of extracellular fibronectin and collagen-1 by caffeic acid,[1],inhibit
O=C(Oc1cccc(F)c1OC(=O)c1cccc(O)c1)c1cccc(O)c1 [WZB-117],SMAD3 dependent transcription,SMAD3,inhibited
same,"extracellular fibronectin, collagen-1 and PAI-1 protein levels","[1]; TGF-B1 3 ng/ml, WZB-117 10 uM, even in dPHFs lacking PPARG and ACOX1",reduced
same,"extracellular levels of fibronectin, collagen-1, and PAI-1 (ECM proteins)","[1]; dPHFs, WZB-117 10 uM",downregulation
